Laboratory results taken from BindingDB's records for doi:10.1021/jm00017a004 (Centre De Recherche Pierre Fabre, 1995).

These molecules were tested against Squalene monooxygenase (Sus scrofa) (assay: In vitro inhibitory activity against pig liver microsomal squalene epoxidase).
CCN(C/C=C/C#CC(C)(C)C)Cc1cccc(OC[Si](C)(C)c2ccc(C(=O)C(F)(F)F)cc2)c1 [1-{4-[(3-{[((E)-6,6-Dimethyl-hept-2-en-4-ynyl)-ethyl-amino]-methyl}-phenoxymethyl)-dimethyl-silanyl]-phenyl}-2,2,2-trifluoro-ethanone] showed an IC50 of 5000 nM. Work on CCN(C/C=C/C#CC(C)(C)C)Cc1cccc(OC[Si](C)(C)c2ccc(C=O)cc2)c1 [4-[(3-{[((E)-6,6-Dimethyl-hept-2-en-4-ynyl)-ethyl-amino]-methyl}-phenoxymethyl)-dimethyl-silanyl]-benzaldehyde] yielded an IC50 of 100 nM. For CCN(C/C=C/C#CC(C)(C)C)Cc1cccc(OC[Si](C)(C)c2ccc(C(N)=O)cc2)c1 [4-[(3-{[((E)-6,6-Dimethyl-hept-2-en-4-ynyl)-ethyl-amino]-methyl}-phenoxymethyl)-dimethyl-silanyl]-benzamide], the IC50 was 5000 nM. With CCN(C/C=C/C#CC(C)(C)C)Cc1cccc(OC[Si](C)(C)c2ccc(S)cc2)c1 [4-[(3-{[((E)-6,6-Dimethyl-hept-2-en-4-ynyl)-ethyl-amino]-methyl}-phenoxymethyl)-dimethyl-silanyl]-benzenethiol] the IC50 was 8000 nM. CCN(C/C=C/C#CC(C)(C)C)Cc1cccc(OC[Si](C)(C)c2ccc(O)cc2)c1 [4-[(3-{[((E)-6,6-Dimethyl-hept-2-en-4-ynyl)-ethyl-amino]-methyl}-phenoxymethyl)-dimethyl-silanyl]-phenol] was tested, and the IC50 was 8000 nM. CCN(C/C=C/C#CC(C)(C)C)Cc1cccc(OC[Si](C)(C)c2ccc(Br)cc2)c1 [(3-{[(4-Bromo-phenyl)-dimethyl-silanyl]-methoxy}-benzyl)-((E)-6,6-dimethyl-hept-2-en-4-ynyl)-ethyl-amine] was tested, and the IC50 was 210 nM. CCN(C/C=C/C#CC(C)(C)C)Cc1cccc(OC[Si](C)(C)c2ccc(Cl)cc2)c1 [(3-{[(4-Chloro-phenyl)-dimethyl-silanyl]-methoxy}-benzyl)-((E)-6,6-dimethyl-hept-2-en-4-ynyl)-ethyl-amine] was tested, and the IC50 was 400 nM. CCN(C/C=C/C#CC(C)(C)C)Cc1cccc(OC[Si](C)(C)c2ccccc2-c2ccsc2)c1 [((E)-6,6-Dimethyl-hept-2-en-4-ynyl)-(3-{[dimethyl-(2-thiophen-3-yl-phenyl)-silanyl]-methoxy}-benzyl)-ethyl-amine] was tested, and the IC50 was 10000 nM. Work on CCN(C/C=C/C#CC(C)(C)C)Cc1cccc(OC[Si](C)(C)c2ccccc2C(F)(F)F)c1 [((E)-6,6-Dimethyl-hept-2-en-4-ynyl)-(3-{[dimethyl-(2-trifluoromethyl-phenyl)-silanyl]-methoxy}-benzyl)-ethyl-amine] yielded an IC50 of 70 nM. Work on C=Cc1ccc([Si](C)(C)COc2cccc(CN(CC)C/C=C/C#CC(C)(C)C)c2)cc1 [((E)-6,6-Dimethyl-hept-2-en-4-ynyl)-(3-{[dimethyl-(4-vinyl-phenyl)-silanyl]-methoxy}-benzyl)-ethyl-amine] yielded an IC50 of 70 nM. Work on CCN(C/C=C/C#CC(C)(C)C)Cc1cccc(OC[Si](C)(C)c2ccc(F)cc2)c1 [((E)-6,6-Dimethyl-hept-2-en-4-ynyl)-ethyl-(3-{[(4-fluoro-phenyl)-dimethyl-silanyl]-methoxy}-benzyl)-amine] yielded an IC50 of 60 nM. With CCN(C/C=C/C#CC(C)(C)C)Cc1cccc(OC[Si](C)(C)c2ccc(OC)cc2)c1 [((E)-6,6-Dimethyl-hept-2-en-4-ynyl)-ethyl-(3-{[(4-methoxy-phenyl)-dimethyl-silanyl]-methoxy}-benzyl)-amine] the IC50 was 870 nM. In the case of CCN(C/C=C/C#CC(C)(C)C)Cc1cccc(OC[Si](C)(C)c2cccc(C)c2)c1 [((E)-6,6-Dimethyl-hept-2-en-4-ynyl)-{3-[(dimethyl-m-tolyl-silanyl)-methoxy]-benzyl}-ethyl-amine], the IC50 is reported as 3000 nM. CCN(C/C=C/C#CC(C)(C)C)Cc1cccc(OC[Si](C)(C)c2ccc(C)cc2)c1 [((E)-6,6-Dimethyl-hept-2-en-4-ynyl)-{3-[(dimethyl-p-tolyl-silanyl)-methoxy]-benzyl}-ethyl-amine] showed an IC50 of 120 nM. Work on CCN(C/C=C/C#CC(C)(C)C)Cc1cccc(OC[Si](C)(C)CCc2ccccc2)c1 [((E)-6,6-Dimethyl-hept-2-en-4-ynyl)-{3-[(dimethyl-phenethyl-silanyl)-methoxy]-benzyl}-ethyl-amine] yielded an IC50 greater than 10000 nM. In the case of CCN(C/C=C/C#CC(C)(C)C)Cc1cccc(OC[Si](C)(C)Cc2ccccc2)c1 [{3-[(Benzyl-dimethyl-silanyl)-methoxy]-benzyl}-((E)-6,6-dimethyl-hept-2-en-4-ynyl)-ethyl-amine], the IC50 is reported as 130 nM. CCN(C/C=C/C#CC(C)(C)C)Cc1cccc(OC[Si](C)(C)C2CCCCC2)c1 [{3-[(Cyclohexyl-dimethyl-silanyl)-methoxy]-benzyl}-((E)-6,6-dimethyl-hept-2-en-4-ynyl)-ethyl-amine] showed an IC50 of 20000 nM. CCN(CC#CC#CC(C)(C)OC)Cc1cccc(OC[Si](C)(C)c2ccccc2C)c1 [{3-[(Dimethyl-o-tolyl-silanyl)-methoxy]-benzyl}-ethyl-(6-methoxy-6-methyl-hepta-2,4-diynyl)-amine] showed an IC50 of 70 nM.
